Measurements published in PubChem BioAssay AID179 (DTP/NCI, 2004).
The source made the active and inactive calls.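 The calls were made as follows: active = compounds giving half or more protection of infected cells from virus-caused growth loss, again on retest; inactive = the rest.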

System: CEM cells HIV-1 protection, formazan growth assay
Experiment: NCI AIDS Antiviral Assay
Conditions: for IC50: measured here: growth of uninfected CEM cells
Method in brief: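 Category rules: moderately active means at least 50% protection on retest, and confirmed active means 100% protection reproducibly. The underlying data came from a formazan growth assay in HIV-1-infected CEM cells.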

SMILES | EC50 | IC50 | outcome
N#C[C@](CO)(NC(=O)OCc1ccccc1)C(F)F | > 200 µM | > 200 µM | 
COC(=O)C(C)(C)C(OP1(=S)OCCN1C)=C(C)C (centres undefined) | > 117 µM | > 117 µM | 
COC(=O)C1=C(C(=O)OC)C2C(C)=CC(C)=CN2C(C#N)=C(SC)S1 (centres undefined) | > 13.8 µM | > 13.8 µM | 
COC(=O)C1=C(OC)C(=P2(c3ccccc3)CC(c3ccccc3)=C2c2ccccc2)C(C(=O)OC)=C1C(=O)OC (centres undefined) |  |  | inactive
Cc1ccc(/C=c2\c(=O)[nH]c3nc4ccccc4c(=O)n23)cc1 | > 200 µM | 22.4 µM | 
COC(=O)[C@]1(NC(=O)c2ccccc2)C[C@H]1C=O | > 200 µM | 170 µM | 
CC(CCC(=O)O)[C@H]1CCC2[C@@H]3C(=O)C[C@@H]4CC(O)CC[C@]4(C)C3CC[C@@]21C (some centres undefined) |  |  | inactive
COc1ccc(C2C(C#N)=C(S)N(C3OC(COC(C)=O)C(OC(C)=O)C(OC(C)=O)C3OC(C)=O)C(c3ccccc3)=C2C(C)=O)cc1 (centres undefined) | > 200 µM | 25.1 µM | 
CC(O[Si](c1ccccc1)(c1ccccc1)C(C)(C)C)[C@H](NC(=O)OC(C)(C)C)C(=O)O[Si](c1ccccc1)(c1ccccc1)C(C)(C)C (some centres undefined) | > 26.9 µM | 24 µM | 
O=C1c2ccccc2SC[C@@H]2CCCN12 | > 407 µM | > 407 µM | 
COc1cc2c(c(OC)c1OC)C(=O)[C@@H](O)[C@H]2NC(=O)CCCCl | > 200 µM | > 200 µM | 
NCP1(=O)CNC(=O)NC1 | > 1510 µM | > 1510 µM | 
CC(=O)NC1(C)C2CCC3(C)N=C(C)C1CC3C2 (centres undefined) |  |  | inactive
Cc1ccc(Nc2nc3[nH]ccc3c(=O)[nH]2)cc1 | > 200 µM | > 200 µM | 
O=Cc1cc(O)c(O)c(O)c1-c1c(C=O)cc(O)c(O)c1O | > 174 µM | 34.7 µM | 
Clc1ccc(CCN2CCOCC2)c(Cl)c1 | > 63.1 µM | > 63.1 µM | 
C=C(Br)CNC(=O)Nc1ccccn1 | > 200 µM | > 200 µM | 
O=C1CSC(c2ccccc2O)N1c1ccc(-n2c(-c3ccccc3)nc3ccccc3c2=O)cc1 (centres undefined) | > 200 µM | 11.2 µM | 
CCCC(=O)OC(C(Cl)(Cl)Cl)P(=O)(OC)OC (centres undefined) | > 200 µM | 30.9 µM | 
N#CC(C#N)=CN1C(=O)CNC1=S | > 200 µM | > 200 µM | 
COc1ccccc1NC(=O)CC(=O)n1nc(-c2ccccc2)c(N=Nc2ccccc2[N+](=O)[O-])c1-c1ccccc1 | > 33.9 µM | > 33.9 µM | 

SMILES | EC50 | IC50 | outcome
OC(c1cnc2sccn12)C(F)(F)Sc1ccccc1 (centres undefined) | > 200 µM | 10.2 µM | 
O=C1c2ccccc2C(=O)N1n1c(Cc2ccc([N+](=O)[O-])cc2)n[nH]c1=O | > 200 µM | > 200 µM | 
Nc1nc(Cl)cc(Oc2ccc(Cl)cc2)n1 | > 200 µM | > 200 µM | 
CCc1nc(N)c2nc(-c3cccs3)oc2n1 | > 200 µM | 182 µM | 
OC(Nc1ccccn1)(C(F)(F)F)C(F)(F)F | > 200 µM | > 200 µM | 
Cc1cn(CC(=O)NCCCCO)c(=O)[nH]c1=O | > 200 µM | > 200 µM | 
c1ccc(NNC2=NCCN2)cc1 | > 200 µM | 55 µM | 
Cc1cccc(NC(=S)Nc2ccccc2Cl)n1 | 141 µM | > 200 µM | 
COc1ccc(C2C(C#N)=C(N)C(C#N)=C3Oc4ccccc4N32)cc1 (centres undefined) | > 200 µM | > 200 µM | 
Cc1nc2sc(C)c(C)c2c(=O)o1 | > 200 µM | 95.5 µM | 
Cc1[nH]c2ccccc2c1C1CC(=O)NC1=O (centres undefined) |  |  | inactive
O=C(CN1CCCCC1)N1CCc2c([nH]c3ccccc23)C1c1cccnc1 (centres undefined) | > 26.9 µM | > 26.9 µM | 
c1ccc2c3[nH]c(c2c1)=Nc1ccc(cc1)-c1nc2ccc(cc2o1)N=c1[nH]c(c2ccccc12)=Nc1ccc2nc(oc2c1)-c1ccc(cc1)N=3 | > 200 µM | 37.2 µM | 
Cc1ccc2c(c1)[nH]c(=S)n2C=C(C#N)C#N | > 200 µM | > 200 µM | 
C[CH2][Sn]([CH2]C)([O]C(=O)c1ccccc1F)[O][Sn]([CH2]C)([CH2]C)[O]C(=O)c1ccccc1F | > 39.8 µM | 25.1 µM | 
CC(C)CCCC(C)C1CCC2C3CC(OC4OC(CO)C(O)C(O)C4O)C4C[C@@H](OS(=O)(=O)O)CC[C@]4(C)C3CC[C@]12C (some centres undefined) | > 37.2 µM | 15.1 µM | 
O=S(=O)(O)C(I)S(=O)(=O)O | > 200 µM | > 200 µM | 
CCCCCCCCCCCCCCCCOCC(COC1OC(CS(=O)(=O)O)C(O)C(O)C1O)OCCCCCCCCCCCCCCCC (centres undefined) | 100 µM | 123 µM | 
O=C(O)CP(=S)(S)c1ccccc1 (centres undefined) | > 5620 µM | > 5620 µM | 
CCOC(=O)c1c(-c2ccc(OC)cc2)c(C#N)c(=S)n(C2OC(CO)C(O)C(O)C2O)c1C (centres undefined) | > 200 µM | > 200 µM | 
O=[N+]([O-])c1cc([As](=O)(O)O)ccc1F | > 200 µM | > 200 µM | 

SMILES | EC50 | IC50 | outcome
CC(=O)O[C@H]1CCCC[C@H]1c1ccccc1 | > 309 µM | > 309 µM | 
CCCCOC(=O)C(=O)C(CC(C(=O)Cc1ccccc1)c1ccccc1)C(=O)C=C(C)C (centres undefined) | > 112 µM | > 112 µM | 
CCNCCNCC.[O-][Cl+3]([O-])([O-])[O-].[Pd+2].c1ccc(-c2ccccn2)nc1 | > 200 µM | 30.9 µM | 
OCC1=CC(NC2CC(CO)C(O)C(O)C2O)C(O)C(O)C1O (centres undefined) |  |  | inactive
OC1C2CN3CCN(C2)CC1(c1ccccc1)C3 (centres undefined) | > 200 µM | > 200 µM | 
c1ccc(-n2cnnc2-c2nsc3ccccc23)cc1 | > 93.3 µM | > 93.3 µM | 
CN1CCCC2(CCCc3ccccc32)C1 (centres undefined) | > 1000 µM | 257 µM | 
COc1ccc(/C=C/C(=O)Oc2ccc(/C=C3\CCCCC3=O)cc2)cc1 | > 200 µM | 1.05 µM | 
CC(C)N(C(=O)C12C3(C(=O)C(C)(C)C)C4C5(C#N)C3C1(C(=O)C(C)(C)C)C5C42C(=O)C(C)(C)C)C(C)C (centres undefined) | > 151 µM | > 151 µM | 
CC[C@H]1C2OC(=O)[C@H](C)C2[C@@]2(O)C[C@@H]([C@@H]3C[C@H](C)C(=O)O3)N3CCCC[C@@]12C3=O (some centres undefined) | > 200 µM | > 200 µM | 
CN1C(=O)/C(=C2\SC(=O)N(CN3CCOCC3)C2=O)c2ccccc21 | > 200 µM | 37.2 µM | 
CCOC(=O)N/N=C(/N)Cc1ccc(Cl)cc1 | > 200 µM | 120 µM | 
Cc1cc2c(CC(=O)O)[nH]nc2c(C(=O)O)c1C | > 1000 µM | > 1000 µM | 
O=C(CCCl)NNC1=NCCN1 | > 200 µM | > 200 µM | 
Nc1ccc(O)c(C(=O)[O][Sn]([c]2ccccc2)([c]2ccccc2)[c]2ccccc2)c1 | > 2 µM | 0.129 µM | 
Cc1cccc(-c2nc3sc(-c4cccc(C)n4)nc3s2)n1 |  |  | inactive
CC(=O)Oc1ccccc1[C@H]1CC(=O)C[C@H](c2ccccc2OC(C)=O)C12C(=O)c1ccccc1C2=O | > 200 µM | 46.8 µM | 
O=C(/C=C(\Nc1ccccc1O)c1ccccc1)C(=O)NC12CC3CC(CC(C3)C1)C2 | > 200 µM | > 200 µM | 
N#CC12CCC1C1CCCCC12N1CCSCC1 (centres undefined) |  |  | inactive
C=CC[C@@]12CC(C=CC13OCCO3)OC(O)[C@@H]2C (some centres undefined) | > 200 µM | 145 µM | 
Cc1c(O)c(OC2OC(CO)C(O)C(O)C2O)cc2c1CC[C@@H]1C2(C)C(=O)C[C@]2(C)[C@@H]([C@@](C)(O)C(O)CCC(C)(C)O)[C@H](O)C[C@@]12C (some centres undefined) | > 200 µM | > 200 µM | 
